Results taken from ChEMBL document CHEMBL1201862, “PubChem BioAssay data set” (2004).
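Tested at 5 concentrations; 48 h exposure; 96-well plates; endpoints linearly interpolated, else capped at highest concentration. The concentration for 50% growth inhibition is given as GI50.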 Calls of active or inactive are those of the source. Rule as the data show it: active = GI50 up to about 1.1 µM and inactive = higher.

What was measured:
Assay in all cases: inhibition of tumour cell growth, NCI panel, 48 h
RPMI-8226 = tested on: RPMI-8226
SR = tested on: SR
OVCAR-8 = tested on: OVCAR-8
SNB-78 = tested on: SNB-78
HOP-92 = tested on: HOP-92
IGROV-1 = tested on: IGROV-1
SF-295 = tested on: SF-295
OVCAR-5 = tested on: OVCAR-5
A498 = tested on: A498
A549 = tested on: A549
DMS-273 = tested on: DMS-273
SF-539 = tested on: SF-539
LOX IMVI = tested on: LOX IMVI
Malme-3M = tested on: Malme-3M
SK-OV-3 = tested on: SK-OV-3
XF498 = tested on: XF498
HOP-62 = tested on: HOP-62
SK-MEL-5 = tested on: SK-MEL-5
SW-620 = tested on: SW-620
KM12 = tested on: KM12
NCI-H23 = tested on: NCI-H23
LXFL 529 = tested on: LXFL 529
SN12C = tested on: SN12C
786-0 = tested on: 786-0
U-251 = tested on: U-251
ACHN = tested on: ACHN
DLD-1 = tested on: DLD-1
HT-29 = tested on: HT-29
MOLT-4 = tested on: MOLT-4
HCT-116 = tested on: HCT-116
NCI-H226 = tested on: NCI-H226
SNB-19 = tested on: SNB-19
DMS-114 = tested on: DMS-114
HCC 2998 = tested on: HCC 2998
SK-MEL-28 = tested on: SK-MEL-28
SNB-75 = tested on: SNB-75
HCT-15 = tested on: HCT-15
NCI-H460 = tested on: NCI-H460
SF-268 = tested on: SF-268
SK-MEL-2 = tested on: SK-MEL-2
M14 = tested on: M14
UO-31 = tested on: UO-31
UACC-257 = tested on: UACC-257
TK-10 = tested on: TK-10
KM-20L2 = tested on: KM-20L2
COLO 205 = tested on: COLO 205
NCI-H522 = tested on: NCI-H522
CCRF-CEM = tested on: CCRF-CEM
OVCAR-4 = tested on: OVCAR-4
HL-60 = tested on: HL-60
M19-MEL = tested on: M19-MEL
UACC-62 = tested on: UACC-62
OVCAR-3 = tested on: OVCAR-3
CAKI-1 = tested on: CAKI-1
K562 = tested on: K562
EKVX = tested on: EKVX
RXF 393 = tested on: RXF 393

SMILES: O=C(CSC(=S)N1CCCCC1)Nc1nc2c(s1)CCCC2
- GI50 (RPMI-8226): 33.5 µM (inactive)
- GI50 (SR): 6.4 µM (inactive)
- GI50 (OVCAR-8): 58.1 µM (inactive)
- GI50 (SNB-78): > 100 µM (inactive)
- GI50 (HOP-92): 39.1 µM (inactive)
- GI50 (IGROV-1): > 100 µM (inactive)
- GI50 (SF-295): 16.4 µM (inactive)
- GI50 (OVCAR-5): > 100 µM (inactive)
- GI50 (A498): > 100 µM (inactive)
- GI50 (A549): 43.6 µM (inactive)
- GI50 (DMS-273): 49.4 µM (inactive)
- GI50 (SF-539): 34 µM (inactive)
- GI50 (LOX IMVI): 13.8 µM (inactive)
- GI50 (Malme-3M): > 100 µM (inactive)
- GI50 (SK-OV-3): > 100 µM (inactive)
- GI50 (XF498): 19.3 µM (inactive)
- GI50 (HOP-62): 91.4 µM (inactive)
- GI50 (SK-MEL-5): 18.5 µM (inactive)
- GI50 (SW-620): 40.7 µM (inactive)
- GI50 (KM12): 57.4 µM (inactive)
- GI50 (NCI-H23): 36.6 µM (inactive)
- GI50 (LXFL 529): 32.1 µM (inactive)
- GI50 (SN12C): 31.3 µM (inactive)
- GI50 (786-0): 48.3 µM (inactive)
- GI50 (U-251): 29.2 µM (inactive)
- GI50 (ACHN): 50 µM (inactive)
- GI50 (DLD-1): 26.9 µM (inactive)
- GI50 (HT-29): 36.3 µM (inactive)
- GI50 (MOLT-4): 11 µM (inactive)
- GI50 (HCT-116): 12.1 µM (inactive)
- GI50 (NCI-H226): 43.4 µM (inactive)
- GI50 (SNB-19): 71.1 µM (inactive)
- GI50 (DMS-114): 53.2 µM (inactive)
- GI50 (HCC 2998): 48.3 µM (inactive)
- GI50 (SK-MEL-28): 64.7 µM (inactive)
- GI50 (SNB-75): > 100 µM (inactive)
- GI50 (HCT-15): 8.73 µM
- GI50 (NCI-H460): 15.1 µM (inactive)
- GI50 (SF-268): 20.7 µM (inactive)
- GI50 (SK-MEL-2): > 100 µM (inactive)
- GI50 (M14): 66.5 µM (inactive)
- GI50 (UO-31): 33.7 µM (inactive)
- GI50 (UACC-257): 23.3 µM (inactive)
- GI50 (TK-10): 16.4 µM (inactive)
- GI50 (KM-20L2): 46 µM (inactive)
- GI50 (COLO 205): 33.3 µM (inactive)
- GI50 (NCI-H522): 29.5 µM (inactive)
- GI50 (CCRF-CEM): 29.4 µM (inactive)
- GI50 (OVCAR-4): 91.8 µM (inactive)
- GI50 (HL-60): 12.1 µM (inactive)
- GI50 (M19-MEL): 32.9 µM (inactive)

SMILES: N/C(=N\O)N/N=C/c1ccc(C(F)(F)F)cc1
- GI50 (SR): 6.85 µM (inactive)
- GI50 (OVCAR-8): 13.4 µM (inactive)
- GI50 (SNB-78): 39.4 µM (inactive)
- GI50 (HOP-92): 18.4 µM (inactive)
- GI50 (IGROV-1): 7.41 µM (inactive)
- GI50 (SF-295): 26 µM (inactive)
- GI50 (A498): 17.1 µM (inactive)
- GI50 (UACC-62): 4.66 µM (inactive)
- GI50 (A549): 5.15 µM (inactive)
- GI50 (DMS-273): 16.6 µM (inactive)
- GI50 (SF-539): 15.8 µM (inactive)
- GI50 (OVCAR-3): 13.5 µM (inactive)
- GI50 (Malme-3M): 16.7 µM (inactive)
- GI50 (SK-OV-3): 6.98 µM (inactive)
- GI50 (XF498): 13.8 µM (inactive)
- GI50 (HOP-62): 15.5 µM (inactive)
- GI50 (SW-620): 31 µM (inactive)
- GI50 (KM12): 13.1 µM (inactive)
- GI50 (NCI-H23): 15 µM (inactive)
- GI50 (LXFL 529): 10.9 µM (inactive)
- GI50 (SN12C): 24.7 µM (inactive)
- GI50 (786-0): 9.73 µM (inactive)
- GI50 (U-251): 16.8 µM (inactive)
- GI50 (CAKI-1): 6.46 µM (inactive)
- GI50 (ACHN): 4.61 µM (inactive)
- GI50 (DLD-1): 24.7 µM (inactive)
- GI50 (HT-29): 17.9 µM (inactive)
- GI50 (HCT-116): 32.9 µM (inactive)
- GI50 (DMS-114): 18.4 µM (inactive)
- GI50 (SK-MEL-28): 62.4 µM (inactive)
- GI50 (SNB-75): 26.7 µM (inactive)
- GI50 (NCI-H460): 5.04 µM (inactive)
- GI50 (SF-268): 6.61 µM (inactive)
- GI50 (SK-MEL-2): 18.2 µM (inactive)
- GI50 (M14): 10.6 µM (inactive)
- GI50 (UACC-257): 32.2 µM (inactive)
- GI50 (TK-10): 23.9 µM (inactive)
- GI50 (K562): 16.9 µM (inactive)
- GI50 (COLO 205): 17.9 µM (inactive)
- GI50 (NCI-H522): 10.3 µM (inactive)
- GI50 (CCRF-CEM): 9.68 µM (inactive)
- GI50 (EKVX): 4.23 µM (inactive)
- GI50 (OVCAR-4): 4.86 µM (inactive)
- GI50 (HL-60): 10.9 µM (inactive)
- GI50 (RXF 393): 29.9 µM (inactive)
- GI50 (M19-MEL): 35.2 µM (inactive)

SMILES: Nc1ccc2ncc(Nc3ccc(F)cc3)nc2c1
- GI50 (RPMI-8226): 87.3 µM (inactive)
- GI50 (SR): 44 µM (inactive)
- GI50 (OVCAR-8): > 100 µM (inactive)
- GI50 (SNB-78): > 100 µM (inactive)
- GI50 (SF-295): > 100 µM (inactive)
- GI50 (OVCAR-5): 84.5 µM (inactive)
- GI50 (A549): > 100 µM (inactive)
- GI50 (DMS-273): > 100 µM (inactive)
- GI50 (SF-539): 90.4 µM (inactive)
- GI50 (LOX IMVI): > 100 µM (inactive)
- GI50 (OVCAR-3): > 100 µM (inactive)
- GI50 (Malme-3M): > 100 µM (inactive)
- GI50 (XF498): > 100 µM (inactive)
- GI50 (HOP-62): > 100 µM (inactive)
- GI50 (SK-MEL-5): 34.9 µM (inactive)
- GI50 (SW-620): > 100 µM (inactive)
- GI50 (KM12): 46.3 µM (inactive)
- GI50 (NCI-H23): > 100 µM (inactive)
- GI50 (SN12C): > 100 µM (inactive)
- GI50 (786-0): > 100 µM (inactive)
- GI50 (U-251): > 100 µM (inactive)
- GI50 (CAKI-1): > 100 µM (inactive)
- GI50 (ACHN): > 100 µM (inactive)
- GI50 (DLD-1): > 100 µM (inactive)
- GI50 (HT-29): > 100 µM (inactive)
- GI50 (MOLT-4): 27.7 µM (inactive)
- GI50 (HCT-116): > 100 µM (inactive)
- GI50 (NCI-H226): 37.5 µM (inactive)
- GI50 (SNB-19): > 100 µM (inactive)
- GI50 (DMS-114): 85.3 µM (inactive)
- GI50 (HCC 2998): > 100 µM (inactive)
- GI50 (SK-MEL-28): > 100 µM (inactive)
- GI50 (SNB-75): > 100 µM (inactive)
- GI50 (HCT-15): > 100 µM
- GI50 (NCI-H460): > 100 µM (inactive)
- GI50 (SF-268): > 100 µM (inactive)
- GI50 (SK-MEL-2): > 10 µM (inactive)
- GI50 (M14): > 100 µM (inactive)
- GI50 (UO-31): 99.3 µM (inactive)
- GI50 (UACC-257): > 100 µM (inactive)
- GI50 (TK-10): > 100 µM (inactive)
- GI50 (K562): 52.5 µM (inactive)
- GI50 (COLO 205): > 100 µM (inactive)
- GI50 (NCI-H522): > 100 µM (inactive)
- GI50 (CCRF-CEM): 56.8 µM (inactive)
- GI50 (EKVX): > 100 µM (inactive)
- GI50 (OVCAR-4): > 100 µM (inactive)
- GI50 (HL-60): > 100 µM (inactive)
- GI50 (M19-MEL): 94.6 µM (inactive)
